In patent US9517223B2, “Methods to treat neurodegenerative diseases” (Children's Medical Center Corporation, priority 2012, dated 2016):

Assays:
[1] = mice, 10 mg/kg IP injection for several weeks; cited from earlier work
[2] = system: ALS patient-derived motor neurons (39b); assay: Extracellular MEA recording of spontaneous firing, SOD1 A4V ALS motor neurons; details: retigabine 10 μM; two additional MEAs from separate differentiations

CCOC(=O)Nc1ccc(NCc2ccc(F)cc2)cc1N [Retigabine]
side effects [1]: without apparent side effects
percentage of active neurons blocked (spontaneous firing) [2]: 100%
